Test systems include 786-0; TK-10; UO-31; OVCAR-4; MOLT-4; U-251; SNB-19; SK-MEL-28; COLO 205; SNB-75; HT-29; SK-MEL-5; UACC-257; LOX IMVI; A498; NCI-H226.
Holding throughout (test): NCI anticancer screen, dose series, 48 h

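Grown in 96-well plates, cells were treated for 48 hours with each compound at five concentrations. Insufficient inhibition: endpoint recorded as highest concentration tested. GI50 is the concentration that inhibits growth by half.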 Calls of active or inactive are those of the source. Cut-off read from the data, not from the text of the source: active = GI50 up to about 1.1 µM and inactive = higher.

As to `NC(=O)NC1C(C(N)=O)N(Cc2ccccc2)C(=O)N1Cc1ccccc1` (configuration not stated), the GI50 in the experiment on 786-0, in the experiment with TK-10, in the experiment with UO-31, with OVCAR-4, in the experiment on MOLT-4 and in the experiment on U-251 was > 100 µM (inactive) in each case. Besides, the GI50 in the experiment on SNB-19, in the experiment with SK-MEL-28, in the experiment with COLO 205, in the experiment on SNB-75, in the experiment with HT-29 and with SK-MEL-5 was > 100 µM (inactive) each time. In addition, the GI50 with UACC-257 and in the experiment with LOX IMVI was > 100 µM (inactive) each time.

With `COc1cc2c(cc1OC)[C@]1(O)C(=O)c3ccc4c(c3O[C@@H]1CO2)C[C@H](C(C)(C)O)O4`, the GI50 in the experiment on 786-0 was > 100 µM (inactive); in the experiment with TK-10, > 100 µM (inactive); in the experiment with UO-31, 7.29 µM (inactive); with MOLT-4, 48.9 µM (inactive); with U-251, > 100 µM (inactive); with SNB-19, > 100 µM (inactive). The GI50 is > 100 µM (inactive) in the experiment with SK-MEL-28; > 100 µM (inactive) in the experiment with COLO 205; 22 µM (inactive) in the experiment with SNB-75; > 100 µM (inactive) with HT-29; 6.95 µM (inactive) with UACC-257; 11.1 µM (inactive) with LOX IMVI. Also, the GI50 with A498 was 45.8 µM (inactive).

Turning to `N#CC(NNC(=O)Cc1ccccc1)c1ccc([N+](=O)[O-])cc1` (configuration not stated), the GI50 with 786-0, in the experiment on TK-10, in the experiment with UO-31, in the experiment on OVCAR-4, with MOLT-4 and in the experiment on U-251 was > 100 µM (inactive) each time. For the same compound, the GI50 in the experiment with SK-MEL-28 was > 100 µM (inactive); with COLO 205 it was > 100 µM (inactive); in the experiment with NCI-H226, > 100 µM (inactive); with SNB-75 it was 65.6 µM (inactive); in the experiment on HT-29, > 100 µM (inactive); in the experiment with SK-MEL-5, > 100 µM (inactive). The GI50 in the experiment on UACC-257 and in the experiment on LOX IMVI was > 100 µM (inactive) each time.

Take `Cc1cccc(CC(C)(C)C)c1NC(=O)C(=O)C(C(=O)c1ccc2ccccc2c1)C1OC(=O)c2ccccc21` (configuration not stated): the GI50 is 7.23 µM (inactive) in the experiment on 786-0; 16 µM (inactive) in the experiment with UO-31; 41.5 µM (inactive) in the experiment with OVCAR-4; 4.79 µM (inactive) in the experiment on U-251; 10.6 µM (inactive) with SNB-19; 5.58 µM (inactive) in the experiment with SK-MEL-28. For the same compound, the GI50 with COLO 205 is 15.4 µM (inactive); in the experiment with NCI-H226 it was 2.4 µM (inactive); with HT-29, 20.2 µM (inactive); with SK-MEL-5 it was 13.1 µM (inactive); in the experiment with UACC-257, 12 µM (inactive); in the experiment on LOX IMVI, 11.5 µM (inactive). In addition, in the experiment with A498, the GI50 is 13.2 µM (inactive).

Consider `N#CCCc1nc2ccc(Br)cc2c(=O)n1CCO`, for which the GI50 in the experiment with 786-0, in the experiment with TK-10, in the experiment on UO-31, with OVCAR-4, with MOLT-4 and in the experiment on SK-MEL-28 was > 100 µM (inactive) each time. Also, the GI50 in the experiment with COLO 205, in the experiment on NCI-H226, in the experiment with SNB-75, in the experiment with SK-MEL-5, in the experiment with UACC-257 and with LOX IMVI was > 100 µM (inactive) in each case.

Regarding `C=C1Cc2cc(OC)c(OC)c(OC)c2-c2ccc(SC)c(=O)cc21`, the GI50 in the experiment on 786-0 was < 0.01 µM (active); with TK-10, 0.916 µM (active); in the experiment on OVCAR-4, 4.26 µM (inactive); in the experiment on MOLT-4 it was < 0.01 µM (active); with U-251 it was < 0.01 µM (active); with SK-MEL-28 it was < 0.01 µM (active). Further, the GI50 is < 0.01 µM (active) in the experiment with COLO 205; < 0.01 µM (active) in the experiment on NCI-H226; < 0.01 µM (active) in the experiment with HT-29; < 0.01 µM (active) in the experiment on SK-MEL-5; 0.361 µM (active) in the experiment on UACC-257; < 0.01 µM (active) in the experiment on LOX IMVI. Besides, in the experiment with A498, the GI50 was < 0.01 µM (active).

For the compound `O=C1C(c2ccccc2)=C(c2ccccc2)[C@H](c2ccccc2)[C@]1(Cc1nnn(-c2ccc([N+](=O)[O-])cc2)c1N1CCOCC1)c1ccccc1`, the GI50 is > 37.5 µM (inactive) in the experiment with 786-0; > 37.5 µM (inactive) in the experiment with TK-10; 13.7 µM (inactive) in the experiment with OVCAR-4; 12.1 µM (inactive) in the experiment on MOLT-4; > 37.5 µM (inactive) with U-251; 35.9 µM (inactive) with SNB-19. Moreover, the GI50 was > 37.5 µM (inactive) in the experiment on SK-MEL-28; > 37.5 µM (inactive) in the experiment with COLO 205; > 37.5 µM (inactive) in the experiment with SNB-75; > 37.5 µM (inactive) in the experiment on HT-29; 19.1 µM (inactive) in the experiment with SK-MEL-5; > 37.5 µM (inactive) in the experiment with UACC-257. Moreover, the GI50 in the experiment with LOX IMVI was 24.5 µM (inactive); in the experiment with A498, > 37.5 µM (inactive).

`COc1cccc(-c2cc(O)c3cc(OC)c(OC)cc3n2)c1`: the GI50 in the experiment on 786-0 was 46.6 µM (inactive); in the experiment on TK-10 it was 51.6 µM (inactive); with UO-31, 41.6 µM (inactive); with MOLT-4, 40.6 µM (inactive); in the experiment with U-251 it was 60.5 µM (inactive); with SNB-19, 58.2 µM (inactive). For the same compound, the GI50 in the experiment with SK-MEL-28 is > 100 µM (inactive); with COLO 205 it was 39.3 µM (inactive); in the experiment on SNB-75 it was 34.8 µM (inactive); in the experiment with HT-29 it was 20.1 µM (inactive); in the experiment on UACC-257, 28.9 µM (inactive); in the experiment on LOX IMVI, 64.7 µM (inactive).

Regarding `CCCCCCCCCCCC(=O)OCC1OC(n2cc(F)c(=O)[nH]c2=O)C(NC(=O)OCc2ccccc2)C(O)C1O` (configuration not stated), the GI50 was 24 µM (inactive) in the experiment on 786-0; 38.8 µM (inactive) in the experiment with TK-10; 30.3 µM (inactive) in the experiment with UO-31; 23.8 µM (inactive) with OVCAR-4; 21.2 µM (inactive) in the experiment on MOLT-4; 19 µM (inactive) in the experiment on U-251. Moreover, the GI50 in the experiment with SNB-19 is 28.5 µM (inactive); in the experiment with SK-MEL-28 it was 19.1 µM (inactive); in the experiment with COLO 205, 21.2 µM (inactive); with SNB-75, 11.1 µM (inactive); in the experiment with HT-29 it was 16.1 µM (inactive); with SK-MEL-5, 20.3 µM (inactive). Moreover, the GI50 in the experiment on UACC-257 was 23.4 µM (inactive); in the experiment with LOX IMVI, 18.4 µM (inactive); with A498, 20.1 µM (inactive).

As to `CC(C)C(/C=C/c1ccccc1)=N\NC(=O)N/N=C(/C=C/c1ccccc1)C(C)C`, the GI50 with 786-0 was 18.9 µM (inactive); in the experiment with TK-10, 33.8 µM (inactive); with UO-31 it was 14.7 µM (inactive); with OVCAR-4, 35 µM (inactive); in the experiment with MOLT-4 it was 16.4 µM (inactive); with U-251, 32.3 µM (inactive). In addition, the GI50 in the experiment with SNB-19 was 37.7 µM (inactive); in the experiment with SK-MEL-28, 74 µM (inactive); in the experiment with COLO 205, 18.4 µM (inactive); with NCI-H226, 18.2 µM (inactive); with SNB-75, 25.8 µM (inactive); with HT-29, 26.5 µM (inactive). In addition, the figures for the GI50 in the experiment on SK-MEL-5, with UACC-257 and with LOX IMVI were 21.7 µM (inactive), 44 µM (inactive) and 32.4 µM (inactive), respectively.

With `CC(C)(C)C(=O)O[C@@H]1COC2C(O)COC21` (some centres not stated), the GI50 was > 100 µM (inactive) in the experiment on 786-0; > 100 µM (inactive) in the experiment with TK-10; > 100 µM (inactive) in the experiment on UO-31; > 100 µM (inactive) with OVCAR-4; 19.7 µM (inactive) in the experiment on MOLT-4; > 100 µM (inactive) with U-251. Besides, the GI50 in the experiment on SNB-19, in the experiment on SK-MEL-28, in the experiment with COLO 205, in the experiment with SNB-75, in the experiment with HT-29 and with SK-MEL-5 was > 100 µM (inactive) each time. The GI50 with UACC-257 and in the experiment with LOX IMVI was > 100 µM (inactive) in each case.

In the case of `O=[N+]([O-])c1cccc(C2SCc3nc4ccccc4n32)c1` (configuration not stated), the GI50 with 786-0 is > 100 µM (inactive); with TK-10 it was > 100 µM (inactive); in the experiment with UO-31 it was 31.6 µM (inactive); with OVCAR-4, 63.8 µM (inactive); in the experiment on MOLT-4, 59.4 µM (inactive); in the experiment on U-251 it was > 100 µM (inactive). In addition, the GI50 with SNB-19 was > 100 µM (inactive); with SK-MEL-28 it was > 100 µM (inactive); with COLO 205 it was > 100 µM (inactive); with NCI-H226, 39.6 µM (inactive); in the experiment with HT-29, > 100 µM (inactive); in the experiment on SK-MEL-5, 19.6 µM (inactive). The GI50 is 39.3 µM (inactive) with UACC-257, 88.3 µM (inactive) with LOX IMVI and 77.6 µM (inactive) in the experiment on A498.

Consider `N#CC1C2CCC3(CC2CCN1C(=O)c1ccccc1)OCCO3` (configuration not stated), for which the GI50 in the experiment with 786-0, in the experiment on TK-10, with UO-31, in the experiment with OVCAR-4, in the experiment with MOLT-4 and with U-251 was > 100 µM (inactive) throughout. The GI50 with SNB-19, with SK-MEL-28, in the experiment on COLO 205, in the experiment with SNB-75, with HT-29 and in the experiment with SK-MEL-5 was > 100 µM (inactive) throughout. Moreover, the GI50 in the experiment on UACC-257, in the experiment with LOX IMVI and in the experiment on A498 was > 100 µM (inactive) throughout.

For the compound `N/N=C1\C(=O)N(Cc2ccccc2)C(=O)C1C(=O)NCc1ccccc1` (configuration not stated), the GI50 in the experiment on 786-0, in the experiment with TK-10, with UO-31, with OVCAR-4, in the experiment on MOLT-4 and in the experiment with U-251 was > 100 µM (inactive) in each case. The GI50 in the experiment with SNB-19, in the experiment on SK-MEL-28, with COLO 205, with HT-29, with SK-MEL-5 and in the experiment with UACC-257 was > 100 µM (inactive) throughout. Further, in the experiment on A498, the GI50 is > 100 µM (inactive).
